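Tested at 5 concentrations; 48 h exposure; 96-well plates; endpoints linearly interpolated, else capped at highest concentration. GI50: concentration for 50% inhibition of growth.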 Calls of active or inactive are those of the source. Cut-off read from the data, not from the text of the source: active = GI50 up to about 1.1 µM and inactive = higher.
Columns and labels:
Assay in all cases: NCI anticancer screen, dose series, 48 h
MDA-MB-231 = system: MDA-MB-231
RXF 393 = system: RXF 393
OVCAR-5 = system: OVCAR-5
SW-620 = system: SW-620
NCI-H460 = system: NCI-H460
Malme-3M = system: Malme-3M
HL-60 = system: HL-60
SNB-19 = system: SNB-19
NCI-H522 = system: NCI-H522
SR = system: SR
TK-10 = system: TK-10
SF-539 = system: SF-539
MCF7 = system: MCF7
MDA-N = system: MDA-N
EKVX = system: EKVX
M14 = system: M14
HCC 2998 = system: HCC 2998
RPMI-8226 = system: RPMI-8226
HOP-92 = system: HOP-92
NCI-H226 = system: NCI-H226

Measured: GI50

COC(=O)c1ccc(Oc2nc3ccccc3nc2-c2cccs2)cc1
inactive: MDA-MB-231 21.3 µM | RXF 393 4.79 µM | OVCAR-5 > 100 µM | SW-620 46.8 µM | NCI-H460 33.7 µM | Malme-3M > 100 µM | HL-60 > 100 µM | SNB-19 27.5 µM | NCI-H522 76 µM | SR 48.5 µM | TK-10 26.7 µM | SF-539 5.71 µM | MCF7 3.16 µM | MDA-N > 100 µM | EKVX > 100 µM | M14 89.5 µM

Cc1cccc(C(C)C)c1NC(=O)C(=O)CC(=O)c1sc(Nc2ccccc2Cl)nc1C
inactive: HCC 2998 11.6 µM | MDA-MB-231 41 µM | RXF 393 40.6 µM | OVCAR-5 > 100 µM | SW-620 35.2 µM | NCI-H460 22.1 µM | Malme-3M > 100 µM | RPMI-8226 13.3 µM | HL-60 16.1 µM | SNB-19 56.4 µM | NCI-H522 40.5 µM | SR 18.2 µM | TK-10 90.2 µM | SF-539 4 µM | MCF7 10.3 µM | MDA-N 9.79 µM | HOP-92 10.4 µM | EKVX 52.2 µM | M14 19.5 µM

Cc1cc(C)nc(NS(=O)(=O)c2ccc(Nc3c4ccccc4nc4c(C(=O)NC(CO)(CO)CO)cccc34)cc2)n1
inactive: HCC 2998 16 µM | MDA-MB-231 32.1 µM | OVCAR-5 31.5 µM | SW-620 38.5 µM | NCI-H460 15.8 µM | Malme-3M > 10 µM | RPMI-8226 22.8 µM | HL-60 31.6 µM | SNB-19 25.4 µM | NCI-H522 13.9 µM | SR 23.2 µM | TK-10 31.3 µM | MCF7 25.8 µM | MDA-N 24.1 µM | HOP-92 23.6 µM | EKVX 69 µM | M14 37.2 µM

Cc1ccc(/N=C2N=C(Cl)/C(=C\c3ccco3)N\2)cc1
inactive: NCI-H226 > 100 µM | MDA-MB-231 > 100 µM | RXF 393 > 100 µM | OVCAR-5 > 100 µM | SW-620 > 100 µM | NCI-H460 > 100 µM | Malme-3M > 100 µM | RPMI-8226 > 87.1 µM | HL-60 > 100 µM | SNB-19 > 100 µM | NCI-H522 > 100 µM | SR 96.8 µM | TK-10 > 100 µM | SF-539 > 100 µM | MCF7 > 100 µM | MDA-N > 100 µM | HOP-92 > 100 µM | EKVX > 100 µM | M14 > 100 µM

C=C(C)C#CC(O)(C(=O)OC1CCN(C)CC1)C(C)C (stereo not given)
inactive: HCC 2998 > 100 µM | NCI-H226 > 100 µM | MDA-MB-231 > 100 µM | RXF 393 > 100 µM | OVCAR-5 > 100 µM | SW-620 > 100 µM | Malme-3M > 100 µM | RPMI-8226 > 100 µM | HL-60 > 100 µM | SNB-19 > 100 µM | NCI-H522 > 100 µM | SR > 100 µM | TK-10 > 100 µM | SF-539 > 100 µM | MCF7 > 100 µM | MDA-N > 100 µM | EKVX > 100 µM | M14 > 100 µM

O=C1CC[C@@]23CC(=O)O[C@@H]2CCCC3C1 (stereo not given in full)
inactive: HCC 2998 > 100 µM | NCI-H226 > 100 µM | MDA-MB-231 > 100 µM | RXF 393 18.5 µM | OVCAR-5 > 100 µM | SW-620 > 100 µM | NCI-H460 > 100 µM | Malme-3M > 100 µM | RPMI-8226 > 100 µM | HL-60 > 100 µM | SNB-19 > 100 µM | NCI-H522 > 100 µM | SR > 100 µM | TK-10 > 100 µM | SF-539 > 100 µM | MCF7 > 100 µM | MDA-N > 100 µM | EKVX > 100 µM | M14 > 100 µM

Cc1nc2ccc(S(=O)(=O)O)cc2c(=O)n1-c1ccc(C(=O)NN2C(=O)C(Cl)C2c2ccccc2O)cc1 (stereo not given)
inactive: NCI-H226 > 100 µM | MDA-MB-231 > 100 µM | RXF 393 > 100 µM | OVCAR-5 > 100 µM | SW-620 > 100 µM | Malme-3M > 100 µM | RPMI-8226 > 100 µM | HL-60 > 100 µM | SNB-19 > 100 µM | NCI-H522 > 100 µM | SR > 100 µM | TK-10 > 100 µM | SF-539 92.3 µM | MCF7 > 100 µM | MDA-N > 100 µM | HOP-92 > 100 µM | EKVX 60.1 µM | M14 > 100 µM

CCOC(=O)n1[nH]c(=O)n(-c2ccccc2)c1=O
inactive: HCC 2998 > 100 µM | NCI-H226 > 100 µM | MDA-MB-231 > 100 µM | RXF 393 > 100 µM | OVCAR-5 > 100 µM | SW-620 > 100 µM | NCI-H460 > 100 µM | Malme-3M > 100 µM | RPMI-8226 > 100 µM | HL-60 > 100 µM | SNB-19 > 100 µM | SR > 100 µM | TK-10 > 100 µM | MCF7 > 100 µM | MDA-N > 100 µM | EKVX > 100 µM | M14 > 100 µM

COC(=O)NCCc1n[nH]c2c1C(=O)C=C(Nc1ccccc1OC)C2=O
inactive: HCC 2998 17.7 µM | MDA-MB-231 27 µM | RXF 393 94 µM | OVCAR-5 61.4 µM | SW-620 20.8 µM | NCI-H460 28.2 µM | Malme-3M 14.2 µM | RPMI-8226 20.5 µM | HL-60 21.8 µM | SNB-19 > 100 µM | NCI-H522 24.1 µM | SR 28.5 µM | TK-10 53.7 µM | SF-539 17.5 µM | MCF7 16 µM | MDA-N 18.1 µM | HOP-92 41.7 µM | EKVX 32.8 µM | M14 16.2 µM

O=C(O)c1nnsc1COCc1ccccc1
inactive: MDA-MB-231 > 100 µM | RXF 393 > 100 µM | OVCAR-5 > 100 µM | SW-620 > 100 µM | NCI-H460 > 100 µM | Malme-3M > 100 µM | RPMI-8226 > 100 µM | SNB-19 > 100 µM | NCI-H522 > 100 µM | SR > 100 µM | TK-10 > 100 µM | SF-539 > 100 µM | MCF7 > 100 µM | MDA-N > 100 µM | HOP-92 > 100 µM | EKVX > 100 µM | M14 > 100 µM

COC(=O)CC(C#N)(OP1(=O)OC(c2ccccc2)C(C)N1C)c1ccccc1 (stereo not given)
inactive: HCC 2998 16.6 µM | MDA-MB-231 42.4 µM | RXF 393 20.6 µM | OVCAR-5 27.4 µM | SW-620 17.3 µM | NCI-H460 20.4 µM | Malme-3M 41.8 µM | RPMI-8226 25.1 µM | HL-60 23.8 µM | SNB-19 39.3 µM | NCI-H522 59 µM | SR 25.9 µM | TK-10 29 µM | SF-539 37.5 µM | MCF7 28.2 µM | MDA-N 26.8 µM | HOP-92 32.3 µM | EKVX 21.7 µM | M14 31.3 µM

Cc1cc(N(CCC#N)CCC#N)ccc1/C=C(\NC(=O)/C=C/c1ccccc1)C(=O)Nc1ccc(Cl)cc1
inactive: HCC 2998 4.33 µM | NCI-H226 > 69 µM | MDA-MB-231 > 100 µM | RXF 393 > 68.9 µM | OVCAR-5 54.6 µM | SW-620 12.3 µM | NCI-H460 52.4 µM | Malme-3M 14.2 µM | RPMI-8226 10 µM | HL-60 5.6 µM | SNB-19 > 100 µM | NCI-H522 > 26.2 µM | TK-10 > 100 µM | SF-539 6.81 µM | MCF7 27 µM | MDA-N 5.01 µM | HOP-92 > 100 µM | EKVX > 80.2 µM | M14 9.16 µM

CC(=O)N1CCN(CCCCN2c3ccccc3Sc3cc(N=[N+]=[N-])ccc32)CC1
inactive: HCC 2998 14.5 µM | NCI-H226 17.6 µM | MDA-MB-231 13.8 µM | RXF 393 9.1 µM | OVCAR-5 13.7 µM | SW-620 15.5 µM | NCI-H460 14.1 µM | Malme-3M 17.1 µM | RPMI-8226 10.5 µM | HL-60 8.87 µM | SNB-19 14.5 µM | NCI-H522 13 µM | SR 9.06 µM | TK-10 17.4 µM | SF-539 17.4 µM | MCF7 14 µM | MDA-N 16.7 µM | EKVX 18.2 µM

C[N+]1(CCC(=O)c2ccco2)CC2CCC(CC2)C1 (stereo not given)
inactive: NCI-H226 > 100 µM | MDA-MB-231 > 100 µM | RXF 393 > 100 µM | OVCAR-5 > 100 µM | SW-620 > 100 µM | NCI-H460 > 100 µM | Malme-3M > 100 µM | RPMI-8226 > 100 µM | SNB-19 > 100 µM | NCI-H522 > 100 µM | SR > 100 µM | TK-10 > 100 µM | SF-539 > 100 µM | MCF7 > 100 µM | MDA-N > 100 µM | HOP-92 > 100 µM | EKVX > 100 µM | M14 > 100 µM

CN(C)c1ccc(/C=C2\CCCCCC2=O)cc1
inactive: HCC 2998 > 100 µM | MDA-MB-231 32.7 µM | RXF 393 > 100 µM | OVCAR-5 > 100 µM | SW-620 > 100 µM | NCI-H460 31.6 µM | Malme-3M > 100 µM | RPMI-8226 94.4 µM | HL-60 > 100 µM | SNB-19 > 100 µM | SR > 100 µM | TK-10 > 100 µM | SF-539 > 100 µM | MCF7 > 100 µM | MDA-N > 100 µM | EKVX > 100 µM | M14 79.1 µM
